Measurements: patent US20220323454A1, “PHENOTHIAZINES AND THEIR DERIVATIVES FOR USE AS A MEDICAMENT” (Guangzhou Virotech Pharmaceutical Co., Ltd., priority 2019, published 2022)

Experiments:
B16-OVA cells = experiment: CTL killing of IFN-γ-treated B16-OVA melanoma cells (microscope); type: cell-based, mouse
Protocol: (3) Melanoma cells B16-OVA (B16 cells expressing OVA gene) were treated with 10 μg/mL IFN-γ for 24 hours, and then mixed with CTL cells at a ratio of 1:5 and co-cultured for 4 hours. Cells were treated with 1 μM MTC. B16-OVA cells treated with DMSO or MTC only (without IFN-γ treatment) were used as control. The apoptosis of B16-OVA was observed by microscope, and then the killing ability of CTL cells to target cells was assessed.
(§1) (4) The B16-OVA group received no treatment, and the medium was replaced with water in the Water group. The other groups were treated with 10 μg/mL IFNγ. After 24 hours, except for the B16-OVA group, each group was co-cultured with CTL cells at a ratio of 1:5 for 4 hours, and treated with MTC […], LMT (1 μM) or anti-PD1 (PD-1 antibody, 10 μg/mL, Nivolumab, BMS). The death of B16-OVA in each group was observed by microscope, and then the killing ability of CTL cells to target cells was assessed. […] The IFN-γ+MTC group and the IFN-γ+LMT group were treated with 10 μg/mL IFN-γ for 24 hours. The cells were then mixed with CTL cells at a ratio of 1:5, co-cultured for 4 hours and treated with MTC (1 μM) or LMT (1 μM). The MTC and LMT groups were treated with MTC (10 μM) or LMT (10 μM) only. The killing ability against target cells was observed.

B16-WT cells = experiment: Killing of B16-WT melanoma cells, with or without CTL cells; type: cell-based, mouse; conditions: FIG. 4E
Protocol: as §1

[1] = tested on: Jurkat-PD-1-NFAT-LUC cells; experiment: NFAT-luciferase activity in Jurkat-PD-1-NFAT-LUC cells co-cultured with Raji-PD-L1 cells; type: cell-based, human; conditions: 4.86 μM MTC or LMT added with Raji-PD-L1 cells, 6 h co-culture; FIG. 1E
Protocol: (§2) (1) Jurkat cells were used to construct a stable cell line expressing PD-1. The pCAGin-PD-1 plasmid was electroporated into Jurkat cells, which were then screened with 900 μg/mL G418 antibiotic and flow-sorted for single clones. Jurkat-PD-1 cells were then electroporated into a DNA fragment that controls the luciferase gene through the NFAT-binding site (referred to as NFAT-LUC). A single clone was then flow-sorted and named clone 5. Using this cell, the expression level of IL-2 can be measured by the activity of luciferase. Raji cells stably expressing PD-L1 were constructed, and the pCDNA-PD-L1 plasmid was electroporated into the Raji cells, followed by screening with 2 μg/mL puromycin, and then flow-sorted single clones and named clone 1.
(4) A 96-well plate was coated with 10 μg/mL CD3 antibody/10 μg/mL CD28 antibody overnight at 4° C., and excess antibody then washed off with PBS. Raji cells or Raji-PD-L1 cells were co-cultured with Jurkat-PD-1-NFAT-LUC cells at a ratio of 1:1, or to a mixture of Raji-PD-L1 cells and Jurkat-PD-1-NFAT-LUC cells at a ratio of 1:1 was added 4.86 μM MTC or LMT. Luciferase substrate was added after 6h co-culture and the luciferase activity was measured by a microplate reader.

[2] = tested on: Jurkat-PD-1-NFAT-LUC cells; experiment: IL-2 secretion by Jurkat-PD-1-NFAT-LUC cells co-cultured with Raji-PD-L1 cells (ELISA); type: cell-based, human; conditions: Raji-PD-L1 : Jurkat-PD-1-NFAT-LUC 1:1, CD3/CD28 antibody coated plate, 6 hours; 1 μM MTC or 10 μg/mL PD1 antibody; FIG. 1D
Protocol: as §2
(3) A 96-well plate was coated with 10 μg/mL CD3 antibody/10 μg/mL CD28 antibody overnight at 4° C. and excess antibody was washed off with PBS. Raji cells or Raji-PD-L1 cells were co-cultured with Jurkat-PD-1-NFAT-LUC cells at a ratio of 1:1, or to a mixture of Raji-PD-L1 cells and Jurkat-PD-1-NFAT-LUC cells at a ratio of 1:1 was added 1 μM MTC or 10 μg/mL PD1 antibody for co-culture; after 6 hours of co-culture, the secretion of IL-2 in the supernatant was measured by ELISA.

EL4-OVA-mPDL1 cells = experiment: EL4-OVA-mPDL1 subcutaneous transplanted tumor in Rag1−/− mice given CTL cells; type: in vivo, mouse; conditions: CTL cells by tail vein, MTC 40 mg/kg/day intragastric, PD-1 antibody 10 mg/kg/2 days intraperitoneal, vs CTL cell-only group, FIGS. 5B, C, D
Protocol: (1) Lymphoma cells overexpressing chicken ovalbumin OVA and mouse PD-L1, namely EL4-OVA-mPDL1 cells, were resuspended in BD Matrigel, in which, for one side of one mouse, 2×10^6 cells were resuspended in 100 μl BD Matrigel.
(2) The mixture of cells and Matrigel was inoculated into the left and right flanks of Rag1−/− mice subcutaneously, each at a dosage of 100 μl.
(3) When the tumor was fixed about 5 days after inoculation, activated OT-1 T cells (i.e., 2×10^6 CTL cells/mouse) were injected through the tail vein, and the mice were divided into 3 groups, namely the CTL cell group, the CTL cell +10 mg/kg/2 days PD-1 antibody group, and the CTL cell +40 mg/kg/day MTC group.
(4) The length and width of the transplanted tumor of each group of mice were measured from the day of tail vein injection of CTL cells, and every other day, and the tumor volume was calculated as length×width^2/2 (FIG. 5A).

Molecule | killing effects of CTL cells to B16-OVA cells (B16-OVA cells; B16-OVA treated with 10 μg/mL IFNγ 24 hours, B16-OVA : CTL 1:5, 4 hours, MTC (1 µM), LMT (1 μM), FIGS. 4C and 4D) | combined killing effect with CTL cells on B16-OVA compared with the anti-PD-1 group (B16-OVA cells; MTC (1 µM) or LMT (1 μM) vs anti-PD1 10 μg/mL, FIG. 4D) | killing effect on B16-WT cells, combination with CTL cells (B16-WT cells; IFN-γ 10 μg/mL 24 hours, B16-WT : CTL 1:5, 4 hours, MTC (1 μM) or LMT (1 μM)) | killing effect on B16-WT cells, compound only (B16-WT cells; MTC (10 μM) or LMT (10 μM) only) | luciferase activity [1] | secretion of IL-2 in the supernatant [2] | tumor growth (tumor volume and tumor weight) (EL4-OVA-mPDL1 cells)
CN(C)c1ccc2c(c1)Sc1cc(N(C)C)ccc1N2 [LMT, N3,N3,N7,N7-tetramethyl-10H-phenothiazine-3,7-diammonium dimesylate] | significantly enhanced | significantly stronger than that of the anti-PD-1 group | no killing effect | no killing effect | increased dramatically | – | –
PD-1 antibody: anti-PD-1 antibody (Nivolumab, Bristol-Myers Squibb) used as comparator | – | – | – | – | – | sharply enhanced | inhibited
